Each structure is given as a SMILES string. In brackets after ≈: the same amount, converted by molar mass.

In experiment [1] the test system is Proteus mirabilis GN2425. The experiment can be described thus: Minimal inhibitory concentration by agar dilution method. It is filed as cell-based.
Experiment [2] concerns Proteus vulgaris HX19. Described as above. The experiment is classed as cell-based.
The subject of experiment [3] is Pseudomonas aeruginosa 104. The description is as above. The experiment is classed as cell-based.
In experiment [4] the test system is Klebsiella pneumoniae 602. The description is as above. The experiment is classed as cell-based.
For experiment [5], the system named is Escherichia coli NIHJ. The description is as above. The experiment is classed as cell-based.
For experiment [6], the system named is Staphylococcus aureus 209P. The experiment is described as above. The experiment is classed as cell-based.
In experiment [7] the test system is Pseudomonas. The conditions noted are these: in words; cited from earlier work.
The test system of experiment [8] is various gram-positive and gram-negative bacteria. The conditions noted are these: in words; cited from earlier work.

Consider `CSc1ncc(C(=O)NC(C(=O)N[C@@H]2C(=O)N3[C@@H]2SC(C)(C)[C@@H]3C(=O)O)c2ccccc2)c(O)n1` (some centres unmarked) [Example 27], for which the MIC was 12.5 µg/mL (≈ 24.2 µM) in experiment [1]; 0.1 µg/mL (≈ 0.193 µM) in experiment [2]; 6.25 µg/mL (≈ 12.1 µM) in experiment [3]; 50 µg/mL (≈ 96.6 µM) in experiment [4]; 50 µg/mL (≈ 96.6 µM) in experiment [5]; 0.78 µg/mL (≈ 1.51 µM) in experiment [6].

`CC1(C)S[C@@H]2[C@H](NC(=O)C(NC(=O)c3ccnnc3O)C3=CCC=CC3)C(=O)N2[C@H]1C(=O)O` (some centres unmarked) [Example 12]: the MIC in experiment [1] came out at 12.5 µg/mL (≈ 26.4 µM); in experiment [2] it was 0.05 µg/mL (≈ 0.106 µM); in experiment [3], 3.13 µg/mL (≈ 6.61 µM); in experiment [4], 3.13 µg/mL (≈ 6.61 µM); in experiment [5], 12.5 µg/mL (≈ 26.4 µM); in experiment [6], 0.2 µg/mL (≈ 0.422 µM).

Regarding `CC1(C)S[C@@H]2[C@H](NC(=O)C(NC(=O)c3cccnc3)c3ccccc3)C(=O)N2[C@H]1C(=O)O` (some centres unmarked) [II, reference compound], the MIC in experiment [1] stood at 100 µg/mL (≈ 220 µM); in experiment [2], 0.78 µg/mL (≈ 1.72 µM); in experiment [3], 50 µg/mL (≈ 110 µM); in experiment [4], 100 µg/mL (≈ 220 µM); in experiment [5], 100 µg/mL (≈ 220 µM); in experiment [6], 0.78 µg/mL (≈ 1.72 µM).

`CCOC(=O)Oc1c(C(=O)NC(C(=O)N[C@@H]2C(=O)N3[C@@H]2SC(C)(C)[C@@H]3C(=O)O)c2ccccc2)cnc2c1CCCCC2` (some centres unmarked) [Example 21]: the MIC is 6.25 µg/mL (≈ 10.2 µM) in experiment [1]; 0.78 µg/mL (≈ 1.28 µM) in experiment [2]; 25 µg/mL (≈ 40.9 µM) in experiment [3]; 3.13 µg/mL (≈ 5.13 µM) in experiment [4]; 25 µg/mL (≈ 40.9 µM) in experiment [5]; 0.78 µg/mL (≈ 1.28 µM) in experiment [6].

For `CC1(C)S[C@@H]2[C@H](NC(=O)C(NC(=O)c3ccnnc3O)c3cnsc3)C(=O)N2[C@H]1C(=O)O` (some centres unmarked) [Example 19], the MIC in experiment [1] was determined as 6.25 µg/mL (≈ 13.1 µM); in experiment [2], 0.05 µg/mL (≈ 0.104 µM); in experiment [3] it was 6.25 µg/mL (≈ 13.1 µM); in experiment [4] it was 25 µg/mL (≈ 52.2 µM); in experiment [5] it was 12.5 µg/mL (≈ 26.1 µM); in experiment [6], 0.39 µg/mL (≈ 0.815 µM).

Regarding `CC1(C)S[C@@H]2[C@H](NC(=O)C(NC(=O)c3ccnnc3O)c3cccs3)C(=O)N2[C@H]1C(=O)O` (some centres unmarked) [Example 18], the MIC in experiment [1] is 6.25 µg/mL (≈ 13.1 µM); in experiment [2], 0.05 µg/mL (≈ 0.105 µM); in experiment [3], 3.13 µg/mL (≈ 6.55 µM); in experiment [4], 12.5 µg/mL (≈ 26.2 µM); in experiment [5] it was 12.5 µg/mL (≈ 26.2 µM); in experiment [6] it was 0.39 µg/mL (≈ 0.817 µM).

As to `CC1(C)S[C@@H]2C(NC(=O)C(N)c3ccccc3)C(=O)N2[C@H]1C(=O)O` (stereo partly drawn) [Ampicillin, 6-(α-aminophenylacetamido)-penicillanic acid], in experiment [7], the “antimicrobial activity against Pseudomonas” value is given as “does not exert any appreciable antimicrobial activity against Pseudomonas”. Besides, the “growth inhibition / antimicrobial activity against gram-positive and gram-negative bacteria” value in experiment [8] is “inhibits the growth of various gram-positive and gram-negativebacteria”.

Source of the values: patent US4008220A, “Penicillins” (Sumitomo Chemical Company, Limited, priority 1972, dated 1977).
